# Test results reported in patent publication US8580525B2, “Methods of screening for LTRPC7 modulators” (The Queen's Medical Center, priority 2000, dated 2013).
# Columns and labels:
# Wild type HEK-293 = assay: ATP-dependent endogenous currents, whole-cell patch-clamp; assay type: cell-based, human; conditions: 6 mM ATP in pipette solution
# Protocol: (§1) For patch-clamp experiments, cells grown on glass coverslips were transferred to the recording chamber and kept in a standard modified Ringer's solution of the following composition (in mM): NaCl 145, KCl 2.8, CsCl 10, CaCl2 1, MgCl2 2, glucose 10, Hepes.NaOH 10, pH 7.2. In some experiments, nominally Ca^2+ and/or Mg^2+-free extracellular solutions or isotonic Ca^2+ solutions (120 mM CaCl2) were applied by pressure ejection from wide-tipped pipettes. Intracellular pipette-filling solutions contained (in mM): Cs-glutamate 145, NaCl 8, MgCl2 1, Cs-BAPTA 10, pH 7.2 adjusted with CsOH. In some experiments, Cs-glutamate was replaced equimolarly by K-glutamate or N-methyl-D-glucamine-chloride. Patch-clamp experiments were performed in the tight-seal whole-cell configuration at 21-25° C. High-resolution current recordings were acquired by a computer-based patch-clamp amplifier system (EPC-9, HEKA, Lambrecht, Germany). Sylgard-coated patch pipettes had resistances between 2-4 M after filling with the standard intracellular solution. […] Capacitive currents and series resistance were determined and corrected before each voltage ramp using the automatic capacitance compensation of the EPC-9. […]
# RBL-2H3 = assay: as above; assay type: cell-based; conditions: 6 mM ATP in pipette solution
# Protocol: as §1
# Jurkat T-lymphocytes = assay: as above; assay type: cell-based; conditions: 6 mM ATP in pipette solution
# Protocol: as §1
# LTRPC7 = molecular target: T1, LTRPC7 (Mus musculus, UniProt Q923J1); assay: Intracellular perfusion with ATP, whole-cell patch-clamp of recombinant LTRPC7; assay type: cell-based
# T1 construct: expressed in transfected cells
# Protocol: For patch-clamp experiments, cells grown on glass coverslips were transferred to the recording chamber and kept in a standard modified Ringer's solution of the following composition (in mM): NaCl 145, KCl 2.8, CsCl 10, CaCl2 1, MgCl2 2, glucose 10, Hepes.NaOH 10, pH 7.2. In some experiments, nominally Ca^2+ and/or Mg^2+-free extracellular solutions or isotonic Ca^2+ solutions (120 mM CaCl2) were applied by pressure ejection from wide-tipped pipettes. Intracellular pipette-filling solutions contained (in mM): Cs-glutamate 145, NaCl 8, MgCl2 1, Cs-BAPTA 10, pH 7.2 adjusted with CsOH. In some experiments, Cs-glutamate was replaced equimolarly by K-glutamate or N-methyl-D-glucamine-chloride. Patch-clamp experiments were performed in the tight-seal whole-cell configuration at 21-25° C. High-resolution current recordings were acquired by a computer-based patch-clamp amplifier system (EPC-9, HEKA, Lambrecht, Germany). Sylgard-coated patch pipettes had resistances between 2-4 M after filling with the standard intracellular solution. Immediately following establishment of the whole-cell configuration, voltage ramps of 50 ms duration spanning the voltage range of −100 to +100 mV were delivered from a holding potential of 0 mV at a rate of 0.5 Hz over a period of 200 to 400 seconds. All voltages were corrected for a liquid junction potential of 10 mV between external and internal solutions when internal solutions contained glutamate. Currents were filtered at 2.3 kHz and digitized at 100 μs intervals. Capacitive currents and series resistance were determined and corrected before each voltage ramp using the automatic capacitance compensation of the EPC-9. The low-resolution temporal development of currents at a given potential was extracted from individual ramp current records by measuring the current amplitudes at voltages of −80 mV or +80 mV.
# T1 sequence (Q923J1 2-1863 limits assumed): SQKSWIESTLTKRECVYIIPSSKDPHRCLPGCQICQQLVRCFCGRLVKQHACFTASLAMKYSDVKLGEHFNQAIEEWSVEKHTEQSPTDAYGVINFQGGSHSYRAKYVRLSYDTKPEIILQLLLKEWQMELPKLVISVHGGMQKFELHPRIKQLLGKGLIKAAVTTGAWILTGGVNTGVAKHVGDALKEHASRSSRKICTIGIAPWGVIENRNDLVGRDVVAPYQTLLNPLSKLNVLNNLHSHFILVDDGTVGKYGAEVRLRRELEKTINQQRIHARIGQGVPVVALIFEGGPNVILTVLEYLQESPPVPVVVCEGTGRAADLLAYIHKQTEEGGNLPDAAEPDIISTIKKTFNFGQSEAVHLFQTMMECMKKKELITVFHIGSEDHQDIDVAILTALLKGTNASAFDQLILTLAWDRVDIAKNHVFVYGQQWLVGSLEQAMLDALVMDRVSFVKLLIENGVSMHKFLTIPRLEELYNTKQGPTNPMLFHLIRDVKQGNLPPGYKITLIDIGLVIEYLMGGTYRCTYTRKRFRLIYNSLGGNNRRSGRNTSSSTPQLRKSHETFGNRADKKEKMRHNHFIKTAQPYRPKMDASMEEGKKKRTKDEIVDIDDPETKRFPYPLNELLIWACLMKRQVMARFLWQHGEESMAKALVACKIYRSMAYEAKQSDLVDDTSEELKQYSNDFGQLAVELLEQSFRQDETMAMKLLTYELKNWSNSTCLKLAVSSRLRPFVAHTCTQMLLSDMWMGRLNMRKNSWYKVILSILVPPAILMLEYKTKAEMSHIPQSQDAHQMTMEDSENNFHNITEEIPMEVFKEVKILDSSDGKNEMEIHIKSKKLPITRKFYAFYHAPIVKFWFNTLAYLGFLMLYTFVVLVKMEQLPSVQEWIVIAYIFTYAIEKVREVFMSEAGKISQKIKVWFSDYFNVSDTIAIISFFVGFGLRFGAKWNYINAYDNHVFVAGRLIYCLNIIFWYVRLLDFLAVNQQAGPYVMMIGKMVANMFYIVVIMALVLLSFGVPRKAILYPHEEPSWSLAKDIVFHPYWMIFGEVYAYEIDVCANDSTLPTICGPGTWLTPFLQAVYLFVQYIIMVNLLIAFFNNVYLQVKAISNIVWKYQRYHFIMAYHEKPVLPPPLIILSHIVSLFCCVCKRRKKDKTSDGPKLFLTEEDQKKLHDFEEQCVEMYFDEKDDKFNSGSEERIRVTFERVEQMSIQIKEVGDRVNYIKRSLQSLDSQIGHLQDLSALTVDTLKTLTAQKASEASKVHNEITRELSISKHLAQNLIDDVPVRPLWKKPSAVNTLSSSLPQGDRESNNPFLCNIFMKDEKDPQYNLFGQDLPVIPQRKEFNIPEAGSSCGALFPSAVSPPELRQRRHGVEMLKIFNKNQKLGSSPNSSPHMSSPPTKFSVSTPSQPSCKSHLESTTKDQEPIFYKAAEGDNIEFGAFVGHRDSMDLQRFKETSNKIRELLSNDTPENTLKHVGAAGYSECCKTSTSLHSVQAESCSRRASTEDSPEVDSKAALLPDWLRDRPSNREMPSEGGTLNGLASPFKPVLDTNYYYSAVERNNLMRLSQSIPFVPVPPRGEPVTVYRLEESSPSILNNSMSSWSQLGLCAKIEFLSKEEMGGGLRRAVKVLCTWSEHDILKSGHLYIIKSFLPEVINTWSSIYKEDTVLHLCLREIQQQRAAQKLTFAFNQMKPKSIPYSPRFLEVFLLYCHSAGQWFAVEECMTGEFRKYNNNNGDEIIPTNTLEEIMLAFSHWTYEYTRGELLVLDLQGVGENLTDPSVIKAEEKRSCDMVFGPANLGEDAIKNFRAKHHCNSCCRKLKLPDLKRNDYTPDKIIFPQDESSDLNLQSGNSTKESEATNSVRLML
structure (smiles),measurement,setting,value
Nc1ncnc2c1ncn2[C@@H]1O[C@H](COP(=O)(O)OP(=O)(O)OP(=O)(O)O)[C@@H](O)[C@H]1O [ATP],outwardly rectifying cationic conductance,Wild type HEK-293,absent
same,outwardly rectifying cationic conductance,RBL-2H3,absent
same,outwardly rectifying cationic conductance,Jurkat T-lymphocytes,absent
same,change of maximum outward current after whole-cell establishment,"LTRPC7; 6 mM ATP in pipette, +80 mV, 300 s",currents are actually decreasing after break-in
same,intracellular concentration that causes the LTRPC7 channel to close,LTRPC7; intracellular ATP,6-10 millimolar
same,intracellular concentration that causes the LTRPC7 channel to reopen,LTRPC7; intracellular ATP,0-4 millimolar
